Source: ChEMBL document CHEMBL1201862, “PubChem BioAssay data set” (2004)
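Cells were grown in 96-well plates and exposed to each compound for 48 hours at five concentrations; endpoints were interpolated linearly between bracketing concentrations, or set to the highest concentration if not reached. The concentration for 50% growth inhibition is given as GI50.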 Calls of active or inactive are those of the source. No stated cut-off is given here; in the data, active = GI50 up to about 1.1 µM and inactive = higher.

What was measured:
Test in all cases: NCI-60 cell line screen, 48 h
SW-620 = test system: SW-620
EKVX = test system: EKVX
U-251 = test system: U-251
CCRF-CEM = test system: CCRF-CEM
NCI-H522 = test system: NCI-H522
RXF 393 = test system: RXF 393
NCI-H23 = test system: NCI-H23
OVCAR-5 = test system: OVCAR-5
COLO 205 = test system: COLO 205
SF-295 = test system: SF-295
TK-10 = test system: TK-10
SN12C = test system: SN12C
UO-31 = test system: UO-31
HCT-116 = test system: HCT-116
UACC-257 = test system: UACC-257
MOLT-4 = test system: MOLT-4
HOP-62 = test system: HOP-62
OVCAR-3 = test system: OVCAR-3
K562 = test system: K562
LOX IMVI = test system: LOX IMVI

How did the GI50 (SW-620) turn out when COc1ccccc1N1C(Cl)C(=O)C1c1c[nH]c2ccccc12 (stereo not given) was run?
The GI50 was > 100 µM (inactive).

And the GI50 (EKVX)?
Its GI50 is > 100 µM (inactive).

What about the GI50 (U-251) of the same molecule?
The GI50 was > 100 µM (inactive).

And the GI50 (CCRF-CEM)?
Its GI50 is > 100 µM (inactive).

What about the GI50 (NCI-H522) of the same molecule?
Its GI50 is > 100 µM (inactive).

And the GI50 (RXF 393)?
Its GI50 is > 100 µM (inactive).

And the GI50 (NCI-H23)?
The GI50 was > 100 µM (inactive).

What about the GI50 (OVCAR-5) of the same molecule?
The GI50 was 13.2 µM (inactive).

And the GI50 (COLO 205)?
The GI50 was > 100 µM (inactive).

What about the GI50 (SF-295) of the same molecule?
Its GI50 is > 100 µM (inactive).

And the GI50 (TK-10)?
The GI50 was > 100 µM (inactive).

What about the GI50 (SN12C) of the same molecule?
Its GI50 is > 100 µM (inactive).

And the GI50 (UO-31)?
Its GI50 is > 100 µM (inactive).

What about the GI50 (HCT-116) of the same molecule?
The GI50 was > 100 µM (inactive).

And the GI50 (UACC-257)?
The GI50 was > 100 µM (inactive).

And the GI50 (MOLT-4)?
Its GI50 is > 100 µM (inactive).

And the GI50 (HOP-62)?
The GI50 was > 100 µM (inactive).

What about the GI50 (OVCAR-3) of the same molecule?
The GI50 was > 100 µM (inactive).

And the GI50 (K562)?
Its GI50 is > 100 µM (inactive).

For O=C1C(=O)c2cc([N+](=O)[O-])ccc2-c2ccc([N+](=O)[O-])cc21, which GI50 (SW-620) is on record?
The GI50 was 0.401 µM (active).

And the GI50 (EKVX)?
The GI50 was 2.04 µM (inactive).

And the GI50 (U-251)?
The GI50 was 0.773 µM (active).

What about the GI50 (CCRF-CEM) of the same molecule?
Its GI50 is 0.289 µM (active).

And the GI50 (NCI-H522)?
Its GI50 is 0.863 µM (active).

And the GI50 (RXF 393)?
Its GI50 is 0.191 µM (active).

What about the GI50 (NCI-H23) of the same molecule?
Its GI50 is 0.682 µM (active).

What about the GI50 (OVCAR-5) of the same molecule?
Its GI50 is 3.27 µM (inactive).

What about the GI50 (COLO 205) of the same molecule?
Its GI50 is 3.01 µM (inactive).

What about the GI50 (SF-295) of the same molecule?
Its GI50 is 1.71 µM (inactive).

What about the GI50 (SN12C) of the same molecule?
The GI50 was 0.927 µM (active).

What about the GI50 (UO-31) of the same molecule?
The GI50 was 1.51 µM (inactive).

What about the GI50 (HCT-116) of the same molecule?
The GI50 was 0.177 µM (active).

What about the GI50 (UACC-257) of the same molecule?
The GI50 was 1.2 µM (inactive).

And the GI50 (MOLT-4)?
The GI50 was 0.288 µM (active).

And the GI50 (HOP-62)?
Its GI50 is 2.89 µM (inactive).

And the GI50 (OVCAR-3)?
Its GI50 is 0.29 µM (active).

And the GI50 (LOX IMVI)?
The GI50 was 0.346 µM (active).

And the GI50 (K562)?
The GI50 was 0.395 µM (active).

Which GI50 (SW-620) does the source give for CC(=O)NC1CC(C(C)(C)NC(C)=O)CC=C1C (stereo not given) here?
The GI50 was > 100 µM (inactive).

And the GI50 (EKVX)?
Its GI50 is > 100 µM (inactive).

And the GI50 (U-251)?
The GI50 was > 100 µM (inactive).

And the GI50 (CCRF-CEM)?
The GI50 was > 100 µM (inactive).

And the GI50 (NCI-H522)?
Its GI50 is > 100 µM (inactive).

And the GI50 (NCI-H23)?
The GI50 was > 100 µM (inactive).

What about the GI50 (OVCAR-5) of the same molecule?
Its GI50 is > 100 µM (inactive).

And the GI50 (COLO 205)?
The GI50 was > 100 µM (inactive).

What about the GI50 (SF-295) of the same molecule?
Its GI50 is > 100 µM (inactive).

And the GI50 (TK-10)?
Its GI50 is > 100 µM (inactive).

What about the GI50 (SN12C) of the same molecule?
The GI50 was > 100 µM (inactive).

And the GI50 (UO-31)?
The GI50 was > 100 µM (inactive).

What about the GI50 (HCT-116) of the same molecule?
The GI50 was > 100 µM (inactive).

What about the GI50 (UACC-257) of the same molecule?
The GI50 was > 100 µM (inactive).

And the GI50 (MOLT-4)?
The GI50 was > 100 µM (inactive).

And the GI50 (HOP-62)?
Its GI50 is > 100 µM (inactive).

And the GI50 (OVCAR-3)?
The GI50 was > 100 µM (inactive).

And the GI50 (LOX IMVI)?
Its GI50 is > 100 µM (inactive).

And the GI50 (K562)?
The GI50 was > 100 µM (inactive).

COc1cc2c(c(OC)c1OC)-c1[nH]ncc1CC2 was tested. Which GI50 (SW-620) did it give?
Its GI50 is > 100 µM (inactive).

What about the GI50 (EKVX) of the same molecule?
Its GI50 is > 100 µM (inactive).

What about the GI50 (U-251) of the same molecule?
Its GI50 is > 100 µM (inactive).

And the GI50 (CCRF-CEM)?
Its GI50 is > 100 µM (inactive).

What about the GI50 (NCI-H23) of the same molecule?
Its GI50 is > 100 µM (inactive).

And the GI50 (OVCAR-5)?
Its GI50 is > 100 µM (inactive).

What about the GI50 (COLO 205) of the same molecule?
The GI50 was > 100 µM (inactive).

And the GI50 (SF-295)?
The GI50 was > 100 µM (inactive).

What about the GI50 (TK-10) of the same molecule?
The GI50 was > 100 µM (inactive).

What about the GI50 (SN12C) of the same molecule?
Its GI50 is > 100 µM (inactive).

What about the GI50 (UO-31) of the same molecule?
The GI50 was > 100 µM (inactive).

And the GI50 (HCT-116)?
The GI50 was > 100 µM (inactive).

And the GI50 (UACC-257)?
The GI50 was > 100 µM (inactive).

What about the GI50 (MOLT-4) of the same molecule?
The GI50 was > 100 µM (inactive).

What about the GI50 (HOP-62) of the same molecule?
The GI50 was > 100 µM (inactive).

And the GI50 (OVCAR-3)?
Its GI50 is > 100 µM (inactive).

And the GI50 (LOX IMVI)?
The GI50 was > 100 µM (inactive).

And the GI50 (K562)?
The GI50 was > 100 µM (inactive).

Which GI50 (SW-620) does the source give for O=C(NN1C(=O)C(Cl)C1c1cccc([N+](=O)[O-])c1)c1ccccc1O (stereo not given) here?
Its GI50 is > 100 µM (inactive).

What about the GI50 (EKVX) of the same molecule?
Its GI50 is > 100 µM (inactive).

What about the GI50 (U-251) of the same molecule?
Its GI50 is > 100 µM (inactive).

What about the GI50 (CCRF-CEM) of the same molecule?
Its GI50 is 35.6 µM (inactive).

What about the GI50 (NCI-H522) of the same molecule?
The GI50 was 28.3 µM (inactive).

What about the GI50 (RXF 393) of the same molecule?
The GI50 was > 100 µM (inactive).

And the GI50 (NCI-H23)?
Its GI50 is > 100 µM (inactive).

What about the GI50 (OVCAR-5) of the same molecule?
Its GI50 is > 100 µM (inactive).

What about the GI50 (COLO 205) of the same molecule?
Its GI50 is > 100 µM (inactive).

And the GI50 (SF-295)?
The GI50 was > 100 µM (inactive).

What about the GI50 (TK-10) of the same molecule?
Its GI50 is > 100 µM (inactive).

And the GI50 (SN12C)?
The GI50 was > 100 µM (inactive).

What about the GI50 (UO-31) of the same molecule?
The GI50 was 71.9 µM (inactive).

And the GI50 (HCT-116)?
The GI50 was > 100 µM (inactive).

What about the GI50 (UACC-257) of the same molecule?
The GI50 was > 100 µM (inactive).

What about the GI50 (MOLT-4) of the same molecule?
Its GI50 is > 100 µM (inactive).

What about the GI50 (HOP-62) of the same molecule?
Its GI50 is > 100 µM (inactive).

What about the GI50 (OVCAR-3) of the same molecule?
The GI50 was > 100 µM (inactive).

What about the GI50 (K562) of the same molecule?
The GI50 was > 100 µM (inactive).

Which results are given for CCCCCCCCCCCCCCCCOCC(COP(=O)([O-])OCC[N+](C)(C)C)OCCCCCCCCCCCCCCCC (stereo not given)?
GI50 (SW-620): > 100 µM (inactive); GI50 (EKVX): > 100 µM (inactive); GI50 (U-251): > 100 µM (inactive); GI50 (CCRF-CEM): > 100 µM (inactive); GI50 (NCI-H522): > 100 µM (inactive); GI50 (RXF 393): > 100 µM (inactive); GI50 (NCI-H23): > 100 µM (inactive); GI50 (OVCAR-5): > 100 µM (inactive); GI50 (COLO 205): > 100 µM (inactive); GI50 (SF-295): > 100 µM (inactive); GI50 (SN12C): > 100 µM (inactive); GI50 (UO-31): > 100 µM (inactive); GI50 (HCT-116): > 100 µM (inactive); GI50 (UACC-257): > 100 µM (inactive); GI50 (MOLT-4): > 100 µM (inactive); GI50 (HOP-62): > 100 µM (inactive); GI50 (OVCAR-3): > 100 µM (inactive); GI50 (LOX IMVI): > 100 µM (inactive); GI50 (K562): > 100 µM (inactive)

With O=C(Nc1ccc(F)cc1)c1cc2ccc(O)cc2o/c1=N\c1ccccc1F as the molecule, how does the GI50 (SW-620) read?
Its GI50 is 34.2 µM (inactive).

And the GI50 (EKVX)?
The GI50 was 13.5 µM (inactive).

What about the GI50 (U-251) of the same molecule?
Its GI50 is 19.9 µM (inactive).

And the GI50 (CCRF-CEM)?
Its GI50 is 17 µM (inactive).

What about the GI50 (NCI-H522) of the same molecule?
Its GI50 is 12.1 µM (inactive).

What about the GI50 (NCI-H23) of the same molecule?
Its GI50 is 1.62 µM (inactive).

What about the GI50 (OVCAR-5) of the same molecule?
The GI50 was 29.1 µM (inactive).

What about the GI50 (COLO 205) of the same molecule?
The GI50 was > 100 µM (inactive).

And the GI50 (SF-295)?
Its GI50 is 30.7 µM (inactive).

What about the GI50 (SN12C) of the same molecule?
Its GI50 is 51.8 µM (inactive).

And the GI50 (HCT-116)?
Its GI50 is 24.8 µM (inactive).

What about the GI50 (UACC-257) of the same molecule?
The GI50 was 27.6 µM (inactive).

And the GI50 (MOLT-4)?
The GI50 was 26.5 µM (inactive).

What about the GI50 (HOP-62) of the same molecule?
Its GI50 is 11.5 µM (inactive).

What about the GI50 (OVCAR-3) of the same molecule?
The GI50 was 27.9 µM (inactive).

What about the GI50 (LOX IMVI) of the same molecule?
Its GI50 is 19.4 µM (inactive).

And the GI50 (K562)?
The GI50 was 11.1 µM (inactive).
